Laboratory results taken from patent US20230048888A1, “USE OF TRIAZOLOTRIAZINE DERIVATIVE IN TREATMENT OF DISEASES” (ZHEJIANG VIMGREEN PHARMACEUTICALS, LTD., priority 2019, published 2023).

Experiments:
[1] = Pharmacokinetics of test compounds in SD rats (15.2; IV and PO, mixed administration); type: in vivo; conditions: male, Sprague-Dawley, rat, plasma; SD rats, PO, 2 mg/kg, mixed administration (6 compounds per group)
Experimental: Administration dose: the compounds in this group were all administered in a mixed way, with 6 compounds in each group for mixed PO administration.
Blood was collected based on the blood collection points in the test protocol. 50 μL of plasma sample was added with acetonitrile (containing 5 ng/mL Verapamil) being 3 folds of the volume thereof; the resulting mixture was vortexed for 30 s, and then centrifuged for 15 min at 15,000 rpm at 4° C.; and 10μ L of supernatant was taken for LC-MS/MS analysis.
For each compound, 3 male SD rats weighing 200-220 g were fasted for one night before dosage, but had access to water.
Orally intragastric administration: before intragastric administration and at 0.083 h, 0.25 h, 0.5 h, 1 h, 2 h, 4 h, 8 h and 24 h after administration (for Compounds 40, 27, 40 and 47), or at 0.25 h, 0.5 h, 1 h, 4 h, 6 h and 8 h after administration (for Compounds 44 and 48), orbital blood was collected and put in a test tube that was treated with heparin sodium, and after centrifugation, the supernatant plasma was collected for LC-MS/MS analysis.
The plasma samples were processed according to the method for “sample treatment” and then analyzed by LC-MS/MS, accompanied with the standard curve and quality control samples. At a time point when the upper limit of quantification was exceeded, the samples were diluted 10 or 100 folds for analysis. All measured data were collected and processed by Analyst 1.6.3 software, and the data were calculated and processed with Microsoft Excel. With DAS 3.2.8 software, the pharmacokinetic parameters were calculated by the statistical moment method. The pharmacokinetic parameters mainly include Tmax, t1/2, Cmax, AUC(0-t), etc.

[2] = target: T1, adenosine receptors A2A (Homo sapiens, UniProt P29274); test: TR-FRET-based cAMP accumulation assay in hADORA2A-HEK293 cells; type: cell-based; conditions: NECA at EC80, hADORA2A-HEK293, read-out: A2AR activity (IC50)
T1 construct: expressed in transfected cells; host or cells: HEK293 (hADORA2A-HEK293)
T1 sequence (P29274 whole entry): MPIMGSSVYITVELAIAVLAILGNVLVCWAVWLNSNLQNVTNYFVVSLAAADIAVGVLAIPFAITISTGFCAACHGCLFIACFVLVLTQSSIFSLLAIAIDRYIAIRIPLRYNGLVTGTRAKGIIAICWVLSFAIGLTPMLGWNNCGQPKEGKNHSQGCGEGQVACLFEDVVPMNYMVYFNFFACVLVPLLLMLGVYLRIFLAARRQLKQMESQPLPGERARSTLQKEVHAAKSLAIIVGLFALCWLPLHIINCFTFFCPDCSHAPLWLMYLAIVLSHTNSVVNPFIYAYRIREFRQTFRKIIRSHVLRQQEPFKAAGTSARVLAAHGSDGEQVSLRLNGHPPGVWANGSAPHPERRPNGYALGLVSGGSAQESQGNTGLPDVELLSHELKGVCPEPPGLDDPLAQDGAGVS
Experimental: The inhibitory effects of the test compounds on the adenosine receptors A2A were evaluated by TR-FRET-based cAMP accumulation assay. The method included, in HEK293 cells (hADORA2A-HEK293) expressing A2AR, the production of cAMP stimulated by NECA and the inhibitory effect of A2A receptor antagonists on cAMP. All cells were cultured in a complete medium at 37° C. in the presence of 5% CO2. After being digested with trypsin, the cells were collected by centrifugation at 200 g for 5 minutes. The cells were resuspended in a fresh complete medium, and then the cell viability was counted by a trypan blue exclusion method. […] The cells were diluted with Hank's buffer solution containing HEPES (5 mM), BSA stabilizer (0.1%) and Rolipram (10 μM), then added to a 384-well white non-transparent plate (cells/well, 10 μl/well), and incubated with the test compound at an appropriate concentration (11 concentrations) for 20 minutes at room temperature. Then, the A2A receptor agonist NECA (final concentration=EC80, which was determined in the same experiment performed earlier) was added to the sample, and the sample was incubated again at 37° C. for 30 minutes.
An inhibition rate (%) was calculated according to the following formula, and an IC50 value was calculated from a concentration-inhibition (%) curve after log conversion.
A curve corresponding to the dose was fitted by using XLfit software and the IC50 was determined.

[3] = Pharmacokinetics of Compounds 27, 16, 14 and 22 in SD rats; type: in vivo; conditions: for AUC(0-t) / Cmax / half-life / clearance: Sprague-Dawley, rat, in vivo; for clearance: read-out: Cl—pred (converted)
Description: (§1) WinNonlin® 6.4 was used as the calculation software for PK parameters.

[4] = Pharmacokinetics of Compounds 27, 40, 22 and 41 in ICR mice in different modes of administration; type: in vivo; conditions: for AUC(0-t) / Cmax / half-life: ICR
Description: as §1

Nc1nc(NCCc2ccc(-c3ccccn3)cc2)nc2nc(-c3ccco3)nn12 [Compound 48, 2-(furan-2-yl)-N5-(4-(pyridin-2-yl)phenethyl)-[1,2,4]triazolo[1,5-a][1,3,5]triazine-5,7-diamine]
AUC(0-t) [1]: 597 ng·h/mL

CN(C)C(=O)c1ccc(CCNc2nc(N)n3nc(-c4ccco4)nc3n2)cc1 [Compound 38, 4-(2-(7-amino-2-(furan-2-yl)-[1,2,4]triazolo[1,5-a][1,3,5]triazine-5-ylamino)ethyl)-N,N-dimethylbenzamide]
IC50 [2]: 8.71 nM

COCCN(CCOC)c1ccc(CCNc2nc(N)n3nc(-c4ccco4)nc3n2)cc1 [Compound 21, N5-(4-(bis(2-methoxyethyl)amino)phenethyl)-2-(furan-2-yl)-[1,2,4]triazolo[1,5-a][1,3,5]triazine-5,7-diamine]
IC50 [2]: 1.62 nM | AUC(0-t) [1]: 603 ng·h/mL

Nc1nc(NCCc2ccc(OCCN3CCC(F)(F)C3)cc2)nc2nc(-c3ccco3)nn12 [Compound 14, N5-(4-(2-(3,3-difluoropyrrolidin-1-yl)ethoxy)phenethyl)-2-(furan-2-yl)-[1,2,4]triazolo[1,5-a][1,3,5]triazine-5,7-diamine]
Cl—F—pred ([3]; PO, dose 10 (mg/kg)): 144 mL/min/kg | F ([3]; PO, dose 10 (mg/kg)): 17.90% | AUC(0-t) ([3]; IV, dose 1 (mg/kg)): 678 ng·h/mL | Cmax ([3]; IV, dose 1 (mg/kg)): 1680 ng/mL | half-life ([3]; IV, dose 1 (mg/kg)): 0.44 h | clearance ([3]; IV, dose 1 (mg/kg)): 24.7 mL/min/kg | AUC(0-t) ([3]; PO, dose 10 (mg/kg)): 1210 ng·h/mL | Cmax ([3]; PO, dose 10 (mg/kg)): 574 ng/mL | half-life ([3]; PO, dose 10 (mg/kg)): 3.05 h

N#Cc1ccc(CCNc2nc(N)n3nc(-c4ccco4)nc3n2)cc1 [Compound 45, 4-(2-(7-amino-2-(furan-2-yl)-[1,2,4]triazolo[1,5-a][1,3,5]triazine-5-ylamino)ethyl)-benzonitrile]
AUC(0-t) [1]: 718 ng·h/mL

Nc1nc(NCCc2ccc(-c3ncccn3)cc2)nc2nc(-c3ccco3)nn12 [Compound 51, 2-(furan-2-yl)-N5-(4-(pyrimidin-2-yl)phenethyl)-[1,2,4]triazolo[1,5-a][1,3,5]triazine-5,7-diamine]
AUC(0-t) [1]: 420 ng·h/mL

CCn1nnc(-c2ccc(CCNc3nc(N)n4nc(-c5ccco5)nc4n3)cc2)n1 [Compound 41, N5-(4-(2-ethyl-2H-tetrazol-5-yl)phenethyl)-2-(furan-2-yl)-[1,2,4]triazolo[1,5-a][1,3,5]triazine-5,7-diamine]
IC50 [2]: 7.87 nM | AUC(0-t) [1]: 1890 ng·h/mL | AUC(0-t) ([4]; mouse, in vivo, iv, 1 mg/kg): 1110 ng·h/mL | Cmax ([4]; mouse, in vivo, iv, 1 mg/kg): 2230 ng/mL | half-life ([4]; mouse, in vivo, iv, 1 mg/kg): 0.28 h | AUC(0-t) ([4]; mouse, in vivo, po, 5 mg/kg): 1800 ng·h/mL | Cmax ([4]; mouse, in vivo, po, 5 mg/kg): 1300 ng/mL | half-life ([4]; mouse, in vivo, po, 5 mg/kg): 1.85 h | Cl—F—pred ([4]; PO, 5 mg/kg): 48.7 mL/min/kg | F ([4]; PO, 5 mg/kg): 32.51% | clearance ([4]; mouse, in vivo, IV, 1 mg/kg, read-out: Cl—pred (converted)): 15.2 mL/min/kg

CC1(C(=O)Nc2ccc(CCNc3nc(N)n4nc(-c5ccco5)nc4n3)cc2)CCOCC1 [Compound 6, N-(4-(2-((7-amino-2-(furan-2-yl)-[1,2,4]triazolo[1,5-a][1,3,5]triazin-5-yl)amino)ethyl)phenyl)-4-methyltetrahydro-2H-pyran-4-carboxamide]
IC50 [2]: 9.24 nM

COCCOCCOCCNc1ccc(CCNc2nc(N)n3nc(-c4ccco4)nc3n2)cc1 [Compound 29, 2-(furan-2-yl)-N5-(4-((2-(2-(2-methoxyethoxy)ethoxy)ethyl)amino)phenethyl)-[1,2,4]triazolo[1,5-a][1,3,5]triazine-5,7-diamine]
AUC(0-t) [1]: 160 ng·h/mL

CCCn1nnc(-c2ccc(CCNc3nc(N)n4nc(-c5ccco5)nc4n3)cc2)n1 [Compound 43, N5-(4-(2-propyl-2H-tetrazol-5-yl)phenethyl)-2-(furan-2-yl)-[1,2,4]triazolo[1,5-a][1,3,5]triazine-5,7-diamine]
AUC(0-t) [1]: 315 ng·h/mL

COCCN(C)c1ccc(CCNc2nc(N)n3nc(-c4ccco4)nc3n2)cc1 [Compound 25, 2-(furan-2-yl)-N5-(4-((2-methoxyethyl)(methyl)amino)phenethyl)-[1,2,4]triazolo[1,5-a][1,3,5]triazine-5,7-diamine]
AUC(0-t) [1]: 142 ng·h/mL

Nc1nc(NCCc2ccc(OCCN3CC[C@H](F)C3)cc2)nc2nc(-c3ccco3)nn12 [Compound 16, (S)-N5-(4-(2-(3-fluoropyrrolidin-1-yl)ethoxy)phenethyl)-2-(furan-2-yl)-[1,2,4]triazolo[1,5-a][1,3,5]triazine-5,7-diamine]
Cl—F—pred ([3]; PO, dose 10 (mg/kg)): 233 mL/min/kg | AUC(0-t) ([3]; IV, dose 1 (mg/kg)): 536 ng·h/mL | Cmax ([3]; IV, dose 1 (mg/kg)): 986 ng/mL | half-life ([3]; IV, dose 1 (mg/kg)): 0.61 h | clearance ([3]; IV, dose 1 (mg/kg)): 31.5 mL/min/kg | AUC(0-t) ([3]; PO, dose 10 (mg/kg)): 758 ng·h/mL | Cmax ([3]; PO, dose 10 (mg/kg)): 258 ng/mL | half-life ([3]; PO, dose 10 (mg/kg)): 4.78 h

Nc1nc(NCCc2ccc(NC3CCOCC3)cc2)nc2nc(-c3ccco3)nn12 [Compound 18, 2-(furan-2-yl)-N5-(4-((tetrahydro-2H-pyran-4-yl)amino)phenethyl)-[1,2,4]triazolo[1,5-a][1,3,5]triazine-5,7-diamine]
IC50 [2]: 3.83 nM | AUC(0-t) [1]: 441 ng·h/mL

Nc1nc(NCCc2ccc(NC3COC3)cc2)nc2nc(-c3cccc(F)c3)nn12 [Compound 37, 2-(3-fluorophenyl)-N5-(4-(oxetan-3-ylamino)phenethyl)-[1,2,4]triazolo[1,5-a][1,3,5]triazine-5,7-diamine]
IC50 [2]: 7.07 nM | AUC(0-t) [1]: 1830 ng·h/mL

COCCOCCNc1ccc(CCNc2nc(N)n3nc(-c4ccco4)nc3n2)cc1 [Compound 28, 2-(furan-2-yl)-N5-(4-((2-(2-methoxyethoxy)ethyl)amino)phenethyl)-[1,2,4]triazolo[1,5-a][1,3,5]triazine-5,7-diamine]
IC50 [2]: 6.77 nM | AUC(0-t) [1]: 757 ng·h/mL

CC(C)n1nnc(-c2ccc(CCNc3nc(N)n4nc(-c5ccco5)nc4n3)cc2)n1 [Compound 42, N5-(4-(2-isopropyl-2H-tetrazol-5-yl)phenethyl)-2-(furan-2-yl)-[1,2,4]triazolo[1,5-a][1,3,5]triazine-5,7-diamine]
IC50 [2]: 9.08 nM | AUC(0-t) [1]: 818 ng·h/mL

COCC(COC)Nc1ccc(CCNc2nc(N)n3nc(-c4ccco4)nc3n2)cc1 [Compound 35, N5-(4-(1,3-dimethoxypropane-2-ylamino)phenethyl)-2-(furan-2-yl)-[1,2,4]triazolo[1,5-a][1,3,5]triazine-5,7-diamine]
IC50 [2]: 4.88 nM | AUC(0-t) [1]: 1600 ng·h/mL

Nc1nc(NCCc2ccc(-c3nnn(CC(F)(F)F)n3)cc2)nc2nc(-c3ccco3)nn12 [Compound 46, N5-(4-(2-(2,2,2-trifluoroethyl)-2H-tetrazol-5-yl)phenethyl)-2-(furan-2-yl)-[1,2,4]triazolo[1,5-a][1,3,5]triazine-5,7-diamine]
AUC(0-t) [1]: 739 ng·h/mL

CCOCCNc1ccc(CCNc2nc(N)n3nc(-c4ccco4)nc3n2)cc1 [Compound 30, N5-(4-((2-ethoxyethyl)amino)phenethyl)-2-(furan-2-yl)-[1,2,4]triazolo[1,5-a][1,3,5]triazine-5,7-diamine]
IC50 [2]: 3.52 nM

N#CCn1nnc(-c2ccc(CCNc3nc(N)n4nc(-c5ccco5)nc4n3)cc2)n1 [Compound 44, 2-(5-(4-(2-(7-amino-2-(furan-2-yl)-[1,2,4]triazolo[1,5-a][1,3,5]triazine-5-ylamino)ethyl)-phenyl)-2H-tetrazol-2-yl)acetonitrile]
AUC(0-t) [1]: 341 ng·h/mL

Cn1cnc(-c2ccc(CCNc3nc(N)n4nc(-c5ccco5)nc4n3)cc2)n1 [Compound 52, 2-(furan-2-yl)-N5-(4-(1-methyl-1H-1,2,4-triazol-3-yl)phenethyl)-[1,2,4]triazolo[1,5-a][1,3,5]triazine-5,7-diamine]
AUC(0-t) [1]: 388 ng·h/mL
